In patent publication US6552188B2, “Unsymmetrical cyclic diamine compound” (Kowa Co., Ltd., priority 2001, dated 2003) one finds inhibition data, which are given here for twelve compounds.

Like-named read-outs stand apart in the source and are kept apart here.

The subject of the assay is adhesion of U937 cells to human umbilical venous endothelial cells (HUVEC). Briefly: Inhibitory effect on cell adhesion (fluorescence-labeled U937 adhered to IL-1β- or TNFα-stimulated HUVEC). The format is cell-based. The conditions noted are these: compound at 1 μM. The method, then:
(Inhibitory Effect on Cell Adhesion)
This test was conducted by reference to the method of Ross et al. (J. Biol. Chem., 267, 8537-8543 (1992)). More specifically, after human umbilical venous endothelial cells (HUVEC) were cultured on a 48-well plate to confluent growth, IL-1β or TNFα was added thereto. Upon elapsed time of 5 hours after the addition, U937, which is a human monocytic/histocytic cell fluorescence-labeled with PKH2 (product of Dainippon Pharmaceutical Co., Ltd.), was added in a proportion of 1×10^6 cells per well. After the plate was left at rest at room temperature for 1 hour, unadhered U937 was washed out and lysed in 1% Triton X-100 to measure a remaining fluorescence intensity (excitation wavelength: 480 nm; measuring wavelength: 530 nm). HUVEC and U937 were cultured in EGM-2 (product of Sanko Junyaku K.K.) and 10% FCS-containing RPMI1640, respectively. Each test agent was added to HUVEC upon the addition of IL-1β or TNFα and to U937 24 hours prior to the cell adhesion test. The inhibitory activity was calculated out according to the equation [100−(C−B)/(A−B)×100(%)], wherein A is the number of U937 cells adhered to HUVEC stimulated by IL-1β or TNFα when no test agent was added, B is the number of U937 cells adhered to HUVEC not stimulated by IL-1β or TNFα when no test agent was added, and C is the number of U937 cells adhered to HUVEC stimulated by IL-1β or TNFα when the test agent was added. As control compounds, Test Compound 1 described in Japanese Patent Application Laid-Open No. 9-143075 and dilazep described in Japanese Patent Application Laid-Open No. 11-92382 were simultaneously evaluated.

Where [1] appears, read: U937 adhesion to HUVEC stimulated by IL-1β, read-out: Percent inhibition (%) Stimulation by IL-1β.
Setting [2] is: U937 adhesion to HUVEC stimulated by TNFα, read-out: Percent inhibition (%) Stimulation by TNFα.

With `COc1cc(C(=O)OCCCN2CCCN(CCCOC(=O)c3cc(OC)c(OC)c(OC)c3)CC2)cc(OC)c1OC` [Dilazep, dilazep, reference compound], the inhibition at 1 µM under setting [1] came to 0% and the inhibition at 1 µM under setting [2] turned out to be 12%.
Regarding `COc1cc(-c2cccc(CN3CCN(Cc4ccnc(-c5cc(OC)c(OC)c(OC)c5)c4)CC3)c2)cc(OC)c1OC` [Example 18, N-[3-(3,4,5-trimethoxyphenyl)benzyl]-N′-[[2-(3,4,5-trimethoxyphenyl)pyridin-4-yl]methyl]piperazine difumarate], the inhibition at 1 µM runs as follows: under setting [1], 37%; under setting [2], 54%.
Taken in the same sequence, the figures for `COc1cc(-c2cccc(CN3CCCN(Cc4ccnc(-c5cc(OC)c(OC)c(OC)c5)c4)CC3)c2)cc(OC)c1OC` [Example 19, N-[3-(3,4,5-trimethoxyphenyl)benzyl]-N′-[[2-(3,4,5-trimethoxyphenyl)pyridin-4-yl]methyl]homopiperazine difumarate] were 33% and 58%.
Taken in the same sequence, the figures for `COc1cc(-c2cc(CN3CCN(Cc4ccnc(-c5ccccc5)c4)CC3)ccn2)cc(OC)c1OC` [Example 21, N-[(2-phenylpyridin-4-yl)methyl]-N′-[[2-(3,4,5-trimethoxyphenyl)pyridin-4-yl]methyl]piperazine difumarate] were 44% and 60%.
Taken in the same sequence, the figures for `COc1ccc(-c2cc(CN3CCN(Cc4ccnc(-c5cc(OC)c(OC)c(OC)c5)c4)CC3)ccn2)cc1` [Example 25, N-[[2-(4-methoxyphenyl)pyridin-4-yl]methyl]-N′-[[2-(3,4,5-trimethoxyphenyl)pyridin-4-yl]methyl]-piperazine difumarate] were 78% and 70%.
In the case of `COc1ccc(-c2cc(CN3CCN(Cc4ccnc(-c5cc(OC)c(OC)c(OC)c5)c4)CC3)ccn2)cc1OC` [Example 26, N-[[2-(3,4-dimethoxyphenyl)pyridin-4-yl]methyl]-N′-[[2-(3,4,5-trimethoxyphenyl)pyridin-4-yl]methyl]piperazine difumarate], the inhibition at 1 µM came out at 75% under setting [1] and 69% under setting [2].
Taken in the same sequence, the figures for `COc1cc(-c2cc(CN3CCN(CCc4ccc5c(OC)c(OC)c(OC)cc5c4)CC3)ccn2)cc(OC)c1OC` [Example 37, N-[2-(5,6,7-trimethoxynaphthalen-2-yl)ethyl]-N′-[[2-(3,4,5-trimethoxyphenyl)pyridin-4-yl]methyl]-piperazine dimaleate] were 68% and 56%.
As for `COc1cc(-c2cc(CN3CCN(Cc4ccc5c(OC)c(OC)c(OC)cc5c4)CC3)ccn2)cc(OC)c1OC` [Example 38, N-[(5,6,7-trimethoxynaphthalen-2-yl)methyl]-N′-[[2-(3,4,5-trimethoxyphenyl)pyridin-4-yl]methyl]-piperazine dimaleate], the inhibition at 1 µM by setting is: under setting [1], 59%; under setting [2], 76%.
With `COc1cc(/C=C/CCCN2CCN(Cc3ccnc(-c4cc(OC)c(OC)c(OC)c4)c3)CC2)cc(OC)c1OC` [Example 40, N-[(E)-5-(3,4,5-trimethoxyphenyl)-4-pentenyl-]-N′-[[2-(3,4,5-trimethoxyphenyl)pyridin-4-yl]methyl]piperazine difumarate], the inhibition at 1 µM amounted to 44% under setting [1] and 55% under setting [2].
Taken in the same sequence, the figures for `COc1cc(/C=C/CCCN2CCCN(Cc3ccnc(-c4cc(OC)c(OC)c(OC)c4)c3)CC2)cc(OC)c1OC` [Example 41, N-[(E)-5-(3,4,5-trimethoxyphenyl)-4-pentenyl]-N′-[[2-(3,4,5-trimethoxyphenyl)pyridin-4-yl]methyl]homopiperazine difumarate] were 56% and 67%.
Taken in the same sequence, the figures for `COc1cc(-c2cc(CN3CCN(CCC/C=C/c4ccc(F)cc4)CC3)ccn2)cc(OC)c1OC` [Example 42, N-[(E)-5-(4-fluorophenyl)-4-pentenyl]-N′-[[2-(3,4,5-trimethoxyphenyl)pyridin-4-yl]methyl]piperazine difumarate] were 54% and 56%.
For `COc1cc(-c2cccc(C(=O)N3CCN(Cc4ccnc(-c5cc(OC)c(OC)c(OC)c5)c4)CC3)c2)cc(OC)c1OC` [Example 56, N-[3-(3,4,5-trimethoxyphenyl)benzoyl]-N′-[[2-(3,4,5-trimethoxyphenyl)pyridin-4-yl]methyl]piperazine], the inhibition at 1 µM is, setting by setting: under setting [1], 76%; under setting [2], 52%.
